The values that follow come from patent publication US9770445B2, “Sulfoximine substituted 5-fluoro-N-(pyridin-2-yl)pyridin-2-amine derivatives and their use as CDK9 kinase inhibitors” (BAYER PHARMA AKTIENGESELLSCHAFT, priority 2013, dated 2017).

Test [1] relates to NCI-H460, human non-small cell lung carcinoma cells. Nature of the test: Proliferation assay, NCI-H460 (crystal violet). The test is classed as cell-based. The settings on record: 96 h, NCI-H460, 4 days, read-out: Inhibition of NCI-H460 cell proliferation. As to the method:
(§1) Cultivated tumour cells (HeLa, human cervical tumour cells, ATCC CCL-2; NCI-H460, human non-small cell lung carcinoma cells, ATCC HTB-177; A2780, human ovarian carcinoma cells, ECACC #93112519; DU 145, hormone-independent human prostate carcinoma cells, ATCC HTB-81; HeLa-MaTu-ADR, multidrug-resistant human cervical carcinoma cells, EPO-GmbH Berlin; Caco-2, human colorectal carcinoma cells, ATCC HTB-37; B16F10, mouse melanoma cells, ATCC CRL-6475) were plated at a density of 5,000 cells/well (DU145, HeLa-MaTu-ADR), 3,000 cells/well (NCI-H460, HeLa), 2,500 cells/well (A2780), 1,500 cells/well (Caco-2), or 1,000 cells/well (B16F10) in a 96-well multititer plate in 200 μL of their respective growth medium supplemented 10% fetal calf serum. After 24 hours, the cells of one plate (zero-point plate) were stained with crystal violet (see below), while the medium of the other plates was replaced by fresh culture medium (200 μl), to which the test substances were added in various concentrations (0 μM, as well as in the range of 0.001-10 μM; the final concentration of the solvent dimethyl sulfoxide was 0.5%). The cells were incubated for 4 days in the presence of test substances. Cell proliferation was determined by staining the cells with crystal violet: the cells were fixed by adding 20 μl/measuring point of an 11% glutaric aldehyde solution for 15 minutes at room temperature. After three washing cycles of the fixed cells with water, the plates were dried at room temperature. The cells were stained by adding 100 μl/measuring point of a 0.1% crystal violet solution (pH 3.0). After three washing cycles of the stained cells with water, the plates were dried at room temperature. The dye was dissolved by adding 100 μl/measuring point of a 10% acetic acid solution. The extinction was determined by photometry at a wavelength of 595 nm. The change of cell number, in percent, was calculated by normalization of the measured values to the extinction values of the zero-point plate (=0%) and the extinction of the untreated (0 μm) cells (=100%). The IC50 values (inhibitory concentration at 50% of maximal effect) were determined by means of a 4 parameter fit.

Test [2] concerns HeLa, human cervical tumour cells. Nature of the test: Proliferation assay, HeLa (crystal violet). It is filed as cell-based. The settings on record: 96 h, 4 days, read-out: Inhibition of HeLa cell proliferation. As to the method: as §1
Test [3] has as its system Caco-2, human colorectal carcinoma cells. Nature of the test: Proliferation assay, Caco-2 (crystal violet). The test is classed as cell-based. The settings on record: 96 h, Caco-2, 4 days, read-out: Inhibition of Caco-2 cell proliferation. The protocol:
as §1

Test [4] deals with DU 145, hormone-independent human prostate carcinoma cells. Description: Proliferation assay, DU145 (crystal violet). The settings on record: DU-145, 96 h, DU145, 4 days, read-out: Inhibition of DU145 cell proliferation. The test is classed as cell-based. As to the method: as §1
Another test concerns the target T1, CDK9/CycT1 (Homo sapiens, UniProt P50750).
T1 construct: Recombinant full-length His-tagged human CDK9 and CycT1; His; purchased Invitrogen PV4131; host or cells: insect cells
Nature of the test: CDK9/CycT1 high ATP kinase assay (Method 1b, TR-FRET). The test is classed as biochemical. The settings on record: 2 mM ATP. The protocol:
1b. CDK9/CyeT1 High ATP Kinase Assay
CDK9/CycT1-inhibitory activity of compounds of the present invention at a high ATP concentration after preincubation of enzyme and test compounds was quantified employing the CDK9/CycT1 TR-FRET assay as described in the following paragraphs.
Recombinant full-length His-tagged human CDK9 and CycT1, expressed in insect cells and purified by Ni-NTA affinity chromatography, were purchase from Invitrogen (Cat. No PV4131). As substrate for the kinase reaction biotinylated peptide biotin-Ttds-YISPLKSPYKISEG (C-terminus in amid form) was used which can be purchased e.g. form the company JERINI peptide technologies (Berlin, Germany). For the assay 50 nl of a 100 fold concentrated solution of the test compound in DMSO was pipetted into a black low volume 384 well microtiter plate (Greiner Bio-One, Frickenhausen, Germany), 2 μl of a solution of CDK9/CycT1 in aqueous assay buffer [50 mM Tris/HCl pH 8.0, 10 mM MgCl2, 1.0 mM dithiothreitol, 0.1 mM sodium ortho-vanadate, 0.01% (v/v) Nonidet-P40 (Sigma)] were added and the mixture was incubated for […] at 22° C. to allow pre-binding of the test compounds to the enzyme before the start of the kinase reaction. Then the kinase reaction was started by the addition of 3 μl of a solution of adenosine-tri-phosphate (ATP, 3.3 mM=>final conc. in the 5 μl assay volume is 2 mM) and substrate (1.67 μM=>final conc. in the 5 μl assay volume is 1 μM) in assay buffer and the resulting mixture was incubated for a reaction time of […] at 22° C. The concentration of CDK9/CycT1 was adjusted depending of the activity of the enzyme lot and was chosen appropriate to have the assay in the linear range, typical concentrations were in the range of 0.5 μg/mL The reaction was stopped by the addition of 5 μl of a solution of TR-FRET detection reagents (0.2 μM streptavidine-XL665 [Cisbio Bioassays, Codolet, France] and 1 nM anti-RB(pSer807/pSer811)-antibody from BD Pharmingen [#558389] and 1.2 nM LANCE EU-W1024 labeled anti-mouse IgG antibody [Perkin-Elmer, product no. AD0077]) in an aqueous EDTA-solution (100 mM EDTA, 0.2% (w/v) bovine serum albumin in 100 mM HEPES/NaOH pH 7.0).
The resulting mixture was incubated 1 h at 22° C. to allow the formation of complex between the phosphorylated biotinylated peptide and the detection reagents. Subsequently the amount of phosphorylated substrate was evaluated by measurement of the resonance energy transfer from the Eu-chelate to the streptavidine-XL. Therefore, the fluorescence emissions at 620 nm and 665 nm after excitation at 350 nm was measured in a HTRF reader, e.g. a Rubystar (BMG Labtechnologies, Offenburg, Germany) or a Viewlux (Perkin-Elmer). The ratio of the emissions at 665 nm and at […] was taken as the measure for the amount of phosphorylated substrate. The data were normalised (enzyme reaction without inhibitor=0% inhibition, all other assay components but no enzyme=100% inhibition).
For orientation: In TR-FRET formats the signal depends on donor and acceptor labels being close together.

Test [5] concerns B16F10, mouse melanoma cells. Nature of the test: Proliferation assay, B16F10 (crystal violet). The test is classed as cell-based. The settings on record: B16-F10, 96 h, B16F10, 4 days, read-out: Inhibition of B16F10 cell proliferation. The protocol:
as §1

Test [6] concerns HeLa-MaTu-ADR, multidrug-resistant human cervical carcinoma cells. Nature of the test: Proliferation assay, HeLa-MaTu-ADR (crystal violet). The settings on record: 96 h, 4 days, read-out: Inhibition of HeLa-MaTu-ADR cell proliferation. It is filed as cell-based. The protocol: as §1

T1 sequence (P50750 whole entry): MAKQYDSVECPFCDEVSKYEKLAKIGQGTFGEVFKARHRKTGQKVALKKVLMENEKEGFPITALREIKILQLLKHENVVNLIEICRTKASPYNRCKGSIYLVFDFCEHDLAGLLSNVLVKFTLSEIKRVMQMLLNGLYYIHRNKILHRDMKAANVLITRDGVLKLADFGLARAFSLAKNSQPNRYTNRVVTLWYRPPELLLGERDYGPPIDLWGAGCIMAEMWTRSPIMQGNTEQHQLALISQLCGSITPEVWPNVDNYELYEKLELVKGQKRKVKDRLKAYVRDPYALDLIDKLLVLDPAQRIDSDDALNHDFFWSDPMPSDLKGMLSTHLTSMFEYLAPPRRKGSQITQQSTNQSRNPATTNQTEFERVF
T1 sequence (O60563 whole entry partner): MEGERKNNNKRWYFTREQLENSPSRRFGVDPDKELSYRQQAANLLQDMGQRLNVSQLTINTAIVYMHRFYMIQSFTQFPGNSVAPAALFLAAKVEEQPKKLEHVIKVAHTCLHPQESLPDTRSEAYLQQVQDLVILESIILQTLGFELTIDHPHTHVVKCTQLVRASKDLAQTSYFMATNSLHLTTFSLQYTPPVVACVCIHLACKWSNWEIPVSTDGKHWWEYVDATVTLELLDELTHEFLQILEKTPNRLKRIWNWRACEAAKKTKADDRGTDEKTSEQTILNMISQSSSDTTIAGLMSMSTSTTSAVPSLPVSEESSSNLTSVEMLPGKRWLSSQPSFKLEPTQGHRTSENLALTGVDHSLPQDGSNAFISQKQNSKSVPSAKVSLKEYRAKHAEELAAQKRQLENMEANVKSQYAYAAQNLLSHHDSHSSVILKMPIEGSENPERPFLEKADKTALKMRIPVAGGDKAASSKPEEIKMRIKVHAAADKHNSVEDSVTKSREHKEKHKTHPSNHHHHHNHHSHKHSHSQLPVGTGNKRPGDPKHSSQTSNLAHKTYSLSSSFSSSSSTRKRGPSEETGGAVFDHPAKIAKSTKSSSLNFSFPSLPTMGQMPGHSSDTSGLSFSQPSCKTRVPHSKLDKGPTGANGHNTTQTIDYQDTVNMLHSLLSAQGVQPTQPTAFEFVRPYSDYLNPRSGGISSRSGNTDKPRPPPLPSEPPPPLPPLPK

For `Cc1cc(CS(C)(=N)=O)cc(Nc2cc(-c3ccc(F)c4ccoc34)c(F)cn2)n1` (racemic) [Example 7, (rac)-5-Fluoro-4-(4-fluoro-1-benzofuran-7-yl)-N-{6-methyl-4-[(S-methylsulfonimidoyl)-methyl]pyridin-2-yl}pyridin-2-amine], the IC50 in test [1] stood at 33 nM; in test [2], 11 nM; in test [3] it was 14 nM; in test [4] it was 14 nM; at CDK9/CycT1, 1.3 nM; in test [5], 17 nM. Further, the IC50 in test [6] amounted to 9.1 nM.
Turning to `CS(=O)(Cc1ccnc(Nc2cc(-c3ccc(F)c4ccoc34)c(F)cn2)c1)=NC(=O)NCC(F)(F)F` (racemic) [Example 13, (rac)-1-{[(2-{[5-Fluoro-4-(4-fluoro-1-benzofuran-7-yl)pyridin-2-yl]amino}pyridin-4-yl)methyl](methyl)oxido-λ^6-sulfanylidene}-3-(2,2,2-trifluoroethyl)urea], the IC50 against CDK9/CycT1 came to 2.3 nM.
Regarding `CCc1cc(CS(C)(=N)=O)cc(Nc2cc(-c3ccc(F)c4ccoc34)c(F)cn2)n1` (racemic) [Example 8, (rac)-N-{6-Ethyl-4-[(S-methylsulfonimidoyl)methyl]pyridin-2-yl}-5-fluoro-4-(4-fluoro-1-benzofuran-7-yl)pyridin-2-amine], the IC50 in test [1] amounted to 35 nM; in test [2], 7.6 nM; in test [3], 9.4 nM; in test [4], 11 nM; at CDK9/CycT1 it was 1.3 nM; in test [5], 32 nM. Also, the IC50 in test [6] was found to be 8.8 nM.
Regarding `CS(=N)(=O)Cc1cc(F)nc(Nc2cc(-c3ccc(F)c4ccoc34)c(F)cn2)c1` (racemic) [Example 1, (rac)-5-Fluoro-4-(4-fluoro-1-benzofuran-7-yl)-N-{6-fluoro-4-[(S-methylsulfonimidoyl)methyl]pyridin-2-yl}pyridin-2-amine], the IC50 in test [1] worked out at 36 nM; in test [2], 30 nM; in test [3] it was 34 nM; in test [4] it was 33 nM; at CDK9/CycT1 it was 1.5 nM; in test [5], 41 nM. The IC50 in test [6] is 30 nM.
Regarding `CS(=N)(=O)Cc1cc(Nc2cc(-c3ccc(F)c4ccoc34)c(F)cn2)nc(C(F)(F)F)c1` (racemic) [Example 3, (rac)-5-Fluoro-4-(4-fluoro-1-benzofuran-7-yl)-N-{4-[(S-methylsulfonimidoyl)methyl]-6-(trifluoromethyl)pyridin-2-yl}pyridin-2-amine], the IC50 is 21 nM in test [1]; 6 nM in test [2]; 19 nM in test [3]; 15 nM in test [4]; 2.7 nM against CDK9/CycT1; 19 nM in test [5]. Moreover, the IC50 in test [6] came to 11 nM.
On to `CS(=O)(Cc1ccnc(Nc2cc(-c3ccc(F)c4ccoc34)c(F)cn2)c1)=NC#N` (racemic) [Example 9, (rac)-{[(2-{[5-fluoro-4-(4-fluoro-1-benzofuran-7-yl)pyridin-2-yl]amino}pyridin-4-yl)methyl](methyl)oxido-λ^6-sulfanylidene}cyanamide], for which the IC50 at CDK9/CycT1 was determined as 1.6 nM.
On to `CS(=O)(Cc1cc(F)nc(Nc2cc(-c3ccc(F)c4ccoc34)c(F)cn2)c1)=NC(=O)C(F)(F)F` (racemic) [Example 2, (rac)-2,2,2-Trifluoro-N-{[(2-fluoro-6-{[5-fluoro-4-(4-fluoro-1-benzofuran-7-yl)pyridin-2-yl]amino}pyridin-4-yl)methyl](methyl)oxido-λ^6-sulfanylidene}acetamide], for which the IC50 worked out at 32 nM in test [1]; 31 nM in test [2]; 35 nM in test [3]; 32 nM in test [4]; 7.8 nM against CDK9/CycT1; 42 nM in test [5]. Moreover, the IC50 in test [6] worked out at 30 nM.
For `CS(=O)(Cc1cc(Nc2cc(-c3ccc(F)c4ccoc34)c(F)cn2)nc(C(F)(F)F)c1)=NC(=O)C(F)(F)F` (racemic) [Example 4, (rac)-2,2,2-Trifluoro-N-[{[2-{[5-fluoro-4-(4-fluoro-1-benzofuran-7-yl)pyridin-2-yl]amino}-6-(trifluoromethyl)pyridin-4-yl]methyl}(methyl)oxido-λ^6-sulfanylidene]acetamide], the IC50 in test [1] was determined as 36 nM; in test [2], 31 nM; in test [3], 40 nM; in test [4], 37 nM; against CDK9/CycT1, 7 nM; in test [5] it was 44 nM. In addition, the IC50 in test [6] was determined as 30 nM.
For `CC(=O)N=S(C)(=O)Cc1ccnc(Nc2cc(-c3ccc(F)c4ccoc34)c(F)cn2)c1` (racemic) [Example 10, (rac)-N-{[(2-{[5-fluoro-4-(4-fluoro-1-benzofuran-7-yl)pyridin-2-yl]amino}pyridin-4-yl)methyl](methyl)oxido-λ^6-sulfanylidene}acetamide], the IC50 against CDK9/CycT1 was 2.3 nM.
`CCNC(=O)N=S(C)(=O)Cc1ccnc(Nc2cc(-c3ccc(F)c4ccoc34)c(F)cn2)c1` (racemic) [Example 12, (rac)-1-Ethyl-3-{[(2-{[5-fluoro-4-(4-fluoro-1-benzofuran-7-yl)pyridin-2-yl]amino}pyridin-4-yl)methyl](methyl)oxido-λ^6-sulfanylidene}urea] showed an IC50 against CDK9/CycT1 of 1.9 nM.
Take `CCOC(=O)N=S(C)(=O)Cc1ccnc(Nc2cc(-c3ccc(F)c4ccoc34)c(F)cn2)c1` (racemic) [Example 11, (rac)-Ethyl {[(2-{[5-fluoro-4-(4-fluoro-1-benzofuran-7-yl)pyridin-2-yl]amino}pyridin-4-yl)methyl](methyl)oxido-λ^6-sulfanylidene}carbamate]: the IC50 at CDK9/CycT1 was 2 nM.
